Laboratory results: US5591602A (priority 1993, dated 1997)

Assays:
μ receptors = details: cited from earlier work
enkephalins = details: peripheral administration; Bertolucci et al., 1992; cited from earlier work
[1] = test system: all known opioid receptor subtypes; details: cited from earlier work
κ and ε sites = details: brain; Chang et al., 1981; cited from earlier work
ε receptors = experiment: inhibition of cAMP formation in BHK cells expressing ε receptors; format: cell-based, human
[2] = test system: U-69, 593 insensitive benzoinorphan site; details: Nock et al., 1993; cited from earlier work
ε opioid receptor = molecular target: T1, ε opioid receptor (Homo sapiens, UniProt P48145); experiment: ligand affinity/interaction profile of the cloned receptor; format: binding
T1 construct: a 2 kb fragment was removed from the 5' untranslated region of the gene and the shortened insert (2.5 kb) was subcloned; expressed in transfected cells; host or cells: COS and BHK cells (pRC/CMV vector)
T1 sequence (P48145 1-328 S296T): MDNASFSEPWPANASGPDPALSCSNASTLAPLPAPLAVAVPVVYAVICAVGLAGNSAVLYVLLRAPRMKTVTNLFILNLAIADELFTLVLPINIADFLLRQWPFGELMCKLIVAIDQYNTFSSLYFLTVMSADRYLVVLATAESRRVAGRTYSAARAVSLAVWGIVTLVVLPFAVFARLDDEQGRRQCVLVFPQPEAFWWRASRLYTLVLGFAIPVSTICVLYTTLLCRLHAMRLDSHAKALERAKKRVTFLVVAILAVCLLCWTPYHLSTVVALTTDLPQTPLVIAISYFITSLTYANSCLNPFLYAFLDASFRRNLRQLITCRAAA

## CN1CC[C@]23c4c5ccc(O)c4O[C@H]2[C@@H](O)C=C[C@H]3[C@H]1C5 [Morphine]
μ receptors
  interaction with μ receptors (in words): interacts principally with μ receptors
enkephalins
  release of enkephalins (in words): induces release of enkephalins

## CCC12CCN(CC3(O)CC3)C(Cc3ccc(O)cc31)C2(C)C (stereo not shown) [[^3 H]bremazocine]
[1]
  affinity for all known opioid receptor subtypes (in words): high affinity

## CC[C@]12CCN(CC3CC3)[C@H](C(=O)c3ccc(O)cc31)[C@@H]2C [ethylketocyclazocine]
κ and ε sites
  labelling of opioid binding sites (in words): label two populations of non-μ, non-δ opioid binding sites

## CN1CC[C@]23CCCC[C@H]2[C@H]1Cc1ccc(O)cc13 [levorphanol]
ε receptors
  inhibition of cAMP formation: inhibition of cAMP formation

## β-endorphin: endogenous opioid peptide with high affinity for the ε receptor
[2]
  affinity for the U-69,593 insensitive site (in words): high affinity
ε opioid receptor
  affinity of the receptor for the ligand (in words): high affinity
